This is an account of results in patent US9879032B2, “Pyridine compounds” (Daiichi Sankyo Company, Limited, priority 2015, dated 2018).

Molecules are shown by their SMILES.

As a reminder, the IC50 is the point on the concentration scale where inhibition reaches its midpoint. Lower therefore signals greater potency in that assay.

For this test, the target named is human TNAP (Homo sapiens (Human), UniProt P05186). In words: Inhibitory test of TNAP activity (pNPP substrate, p-nitrophenol production). It counts as biochemical. The settings on record: inhibition of human TNAP activity, incubated at room temperature for 60 minutes. The method, then: COS 1 cells (DS Pharma Biomedical Co., Ltd.) were transfected with human TNAP (OriGene Technologies, Inc.) using Lipofectamine LTX & Plus reagent (Invitrogen Corp.). On the next day, the medium was replaced with a fresh medium, and the cells were cultured in an incubator for 3 days. After 3 days, the culture supernatant was collected and concentrated by centrifugation at 5000 G for 30 minutes using Amicon 14, 10^4 cut (Merck Millipore). The concentrated culture supernatant was dialyzed against 5 L of 50 mM Tris/200 mM NaCl/1 mM MgCl2/20 μM ZnCl2 twice and used as an enzyme source (enzyme solution). The substrate pNPP (ProteoChem Inc.) was adjusted to 3.1 mM with Milli-Q water, and a solution of each test compound dissolved in dimethyl sulfoxide (DMSO; Wako Pure Chemical Industries, Ltd.) by 6 serial dilutions at a 5-fold common ratio from 100 μM, or DMSO was added thereto at a final concentration of 1% by volume. The enzyme solution adjusted to 2 μg/mL with an assay buffer (200 mM Tris/2 mM MgCl2/0.04 mM ZnCl2/0.01% Tween 20) was added in the same amount of the substrate solution and incubated at room temperature for 60 minutes. Then, the absorbance (ABS: 405 nm) was measured using a microplate reader (model plus 384, Molecular Devices, LLC), and the concentration of produced p-nitrophenol was calculated.
Chain of human TNAP (P05186 18-502): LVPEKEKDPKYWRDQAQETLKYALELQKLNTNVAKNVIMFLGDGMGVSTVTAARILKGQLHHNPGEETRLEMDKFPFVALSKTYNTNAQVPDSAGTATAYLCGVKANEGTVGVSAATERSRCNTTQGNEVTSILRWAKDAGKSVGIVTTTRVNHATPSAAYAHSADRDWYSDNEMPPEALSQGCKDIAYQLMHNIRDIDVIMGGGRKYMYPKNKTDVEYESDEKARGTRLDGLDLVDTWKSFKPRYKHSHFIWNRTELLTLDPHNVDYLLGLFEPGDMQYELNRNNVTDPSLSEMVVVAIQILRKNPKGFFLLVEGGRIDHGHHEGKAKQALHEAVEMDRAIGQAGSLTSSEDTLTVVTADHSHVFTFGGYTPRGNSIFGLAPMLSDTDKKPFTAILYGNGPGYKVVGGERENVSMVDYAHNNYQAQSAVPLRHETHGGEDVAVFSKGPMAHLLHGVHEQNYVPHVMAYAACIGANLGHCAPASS
In the case of `COc1ccc(F)cc1S(=O)(=O)Nc1cnc2c(c1)C(=O)NC1(CC1)CO2` [Example 36, 5-Fluoro-2-methoxy-N-(5′-oxo-4′,5′-dihydrospiro[cyclopropane-1,3′-pyrido[3,2-f][1,4]oxazepin]-7′-yl)benzenesulfonamide], the IC50 is 2.2 nM. `O=C1N[C@@H](CO)COc2ncc(NS(=O)(=O)c3cc(Cl)ccc3OC(F)(F)F)cc21` [Example 31, 5-Chloro-N-[(3S)-3-(hydroxymethyl)-5-oxo-2,3,4,5-tetrahydropyrido[3,2-f][1,4]oxazepin-7-yl]-2-(trifluoromethoxy)benzenesulfonamide]: half-maximal inhibition (IC50) was put at 1.6 nM. The value for `COc1ccc(F)cc1S(=O)(=O)Nc1cnc2c(c1)C(=O)N(C)C(C)CO2` (stereo not shown) [Example 17, N-(3,4-Dimethyl-5-oxo-2,3,4,5-tetrahydropyrido[3,2-f][1,4]oxazepin-7-yl)-5-fluoro-2-methoxybenzenesulfonamide] was 12.6 nM; that for `COc1ccc(OC)c(S(=O)(=O)Nc2cnc3c(c2)C(=O)NC2(CC2)CO3)c1` [Example 43, 2,5-Dimethoxy-N-(5′-oxo-4′,5′-dihydrospiro[cyclopropane-1,3′-pyrido[3,2-f][1,4]oxazepin]-7′-yl)benzenesulfonamide] was 1 nM; that for `COc1ccc(Cl)cc1S(=O)(=O)Nc1cnc2c(c1)C(=O)N(C)CC(C)O2` (stereo not shown) [Example 14, 5-Chloro-N-(2,4-dimethyl-5-oxo-2,3,4,5-tetrahydropyrido[3,2-f][1,4]oxazepin-7-yl)-2-methoxybenzenesulfonamide] was 36.2 nM. The compound `COc1ccc(Cl)cc1S(=O)(=O)Nc1cnc2c(c1)C(=O)N(C)C(C)CO2` (stereo not shown) [Example 16, 5-Chloro-N-(3,4-dimethyl-5-oxo-2,3,4,5-tetrahydropyrido[3,2-f][1,4]oxazepin-7-yl)-2-methoxybenzenesulfonamide] displayed a concentration for half-maximal inhibition (IC50) of 6.2 nM. The value for `COc1ccc(Cl)cc1S(=O)(=O)Nc1cnc2c(c1)C(=O)N(c1ccccn1)CCO2` [Example 38, 5-Chloro-2-methoxy-N-[5-oxo-4-(pyridin-2-yl)-2,3,4,5-tetrahydropyrido[3,2-f][1,4]oxazepin-7-yl]benzenesulfonamide] was 24.4 nM. For the compound `COc1ccc(Cl)cc1S(=O)(=O)Nc1cnc2c(c1)C(=O)N(C(C)C)CCO2` [Example 5, 5-Chloro-2-methoxy-N-[5-oxo-4-(propan-2-yl)-2,3,4,5-tetrahydropyrido[3,2-f][1,4]oxazepin-7-yl]benzenesulfonamide], the IC50 is 71.3 nM. In the case of `COc1ccc(Cl)cc1S(=O)(=O)Nc1cnc2c(c1)C(=O)N[C@@H](C)CO2` [Example 22, 5-Chloro-2-methoxy-N-[(3S)-3-methyl-5-oxo-2,3,4,5-tetrahydropyrido[3,2-f][1,4]oxazepin-7-yl]benzenesulfonamide] it was 1.7 nM; in that of `COc1ccc(F)cc1S(=O)(=O)Nc1cnc2c(c1)C(=O)N(C)CC(C)O2` (stereo not shown) [Example 15, N-(2,4-Dimethyl-5-oxo-2,3,4,5-tetrahydropyrido[3,2-f][1,4]oxazepin-7-yl)-5-fluoro-2-methoxybenzenesulfonamide], 95.7 nM. In the case of `COc1ccc(Cl)cc1S(=O)(=O)Nc1cnc2c(c1)C(=O)NC(c1cccnc1)CO2` (stereo not shown) [Example 44, 5-Chloro-2-methoxy-N-[5-oxo-3-(pyridin-3-yl)-2,3,4,5-tetrahydropyrido[3,2-f][1,4]oxazepin-7-yl]benzenesulfonamide] it was 1.4 nM. Turning to `COc1ccc(Cl)cc1S(=O)(=O)Nc1cnc2c(c1)C(=O)N(c1cccnc1)CCO2` [Example 39, 5-Chloro-2-methoxy-N-[5-oxo-4-(pyridin-3-yl)-2,3,4,5-tetrahydropyrido[3,2-f][1,4]oxazepin-7-yl]benzenesulfonamide], half-maximal inhibition (IC50) required 13.2 nM. This IC50 is about 9.4-fold higher than that of the compound before. In the case of `CCN1CCOc2ncc(NS(=O)(=O)c3cc(F)ccc3OC)cc2C1=O` [Example 4, N-(4-Ethyl-5-oxo-2,3,4,5-tetrahydropyrido[3,2-f][1,4]oxazepin-7-yl)-5-fluoro-2-methoxybenzenesulfonamide], the IC50 came out at 22.9 nM.
